Measured values taken from US8440794B2, “Peptide sequences, their branched form and use thereof for antimicrobial applications” (Universita' Degli Studi di Siena, priority 2008, dated 2013).
Values after ≈ are worked out from the molar mass of the structure shown. Where a SMILES comes first, the peptide text is derived from it. Bridges are numbered along the chain shown (N, C = ends). Roman numbers before positions name the chains, in order. [ ]: non-standard residue; d: D form. βAla = NCCC(=O)O

Experiments:
[1] = tested on: Acinetobacter baumannii RUH 134; type: cell-based; settings: RUH 134, 24 h
Description: (§1) M33, […], M35 and M36 MICs were determined against strains of several bacterial species, including Gram-negative pathogens and also Staphylococcus aureus (Table 1). MICs in the micromolar range were observed against several Gram-negatives including Pseudomonas aeruginosa, Acinetobacter baumannii and most Enterobacteriaceae, with the exception of Proteus mirabilis, Serratia marcescens and Burkholderia cepacia. Activity of peptides was retained against MDR strains with various resistance mechanisms (such as extended-spectrum beta-lactamases and carbapenemases), including MDR P. aeruginosa strains from CF patients. Antimicrobial profile of M33, […] and potency were overall similar to those of polymyxin B, although M33, M34, M35 and M36 also appeared to have some activity against S. aureus (Table 1).

[2] = tested on: Burkholderia cepacia ORB-99; type: cell-based; settings: 24 h
Description: as §1

[3] = tested on: Enterobacer aerogenes W03BG0067; type: cell-based; settings: 24 h
Description: as §1

[4] = tested on: K pneumoniae 7086042; type: cell-based, Klebsiella pneumoniae; settings: 7086042, 24 h
Description: as §1

[5] = tested on: K pneumoniae C8-27; type: cell-based, Klebsiella pneumoniae; settings: C8-27, 24 h
Description: as §1

[6] = tested on: K pneumoniae FIPP-1; type: cell-based, Klebsiella pneumoniae; settings: FIPP-1, 24 h
Description: as §1

[7] = tested on: E. coli W03BG0025; type: cell-based, Escherichia coli; settings: W03BG0025, 24 h
Description: as §1

[8] = tested on: A. baumannii MR157; type: cell-based, Acinetobacter baumannii; settings: MR157, 24 h
Description: as §1

[9] = tested on: A. baumannii RUH 875; type: cell-based, Acinetobacter baumannii; settings: RUH 875, 24 h
Description: as §1

[10] = tested on: S. aureus 3851; type: cell-based, Staphylococcus aureus; settings: 3851, 24 h
Description: as §1

[11] = tested on: LPS; assay: Limulus amebocyte lysate test (E-toxate), LPS neutralization; settings: not shown
[12] = tested on: LPS from P. aeruginosa serotype 10 ATCC27316; TNF-α secretion by Raw 264.7 macrophages; assay: Inhibition of LPS-induced TNF-α secretion by Raw 264.7 macrophages, LPS from P. aeruginosa; type: cell-based
Description: (§2) FIG. 3. Inhibition of TNF-α release by neutralization of LPS. A, Raw 264.7 cells were incubated with LPS from P. aeruginosa 20 ng/ml and M33. Triangles indicate incubation with LPS and different concentrations of M33. Squares indicate incubation with M33 only. B, Raw 264.7 cells were incubated with LPS from K. pneumoniae 5 ng/ml and M33. Triangles indicate incubation of macrophages with LPS and different concentrations of M33. Squares indicate incubation of macrophages with M33 only. SD derived by means of three different experiments. 100% indicates the maximum amount of TNF-α produced by macrophages when incubated with LPS without M33. The other percentages indicate the amount of TNF-α produced by macrophages when incubated with LPS and M33, with respect to 100%. Basal levels of TNF-α were negligible. MIC of M33 is indicated by the arrow.
(§3) Then it was examined for inhibiting LPS-induced TNF-α, secretion by Raw 264.7 macrophages.

[13] = tested on: LPS from K. pneumoniae ATCC15380; TNF-α secretion by Raw 264.7 macrophages; assay: Inhibition of LPS-induced TNF-α secretion by Raw 264.7 macrophages, LPS from K. pneumoniae; type: cell-based
Description: as §2, §3

[14] = tested on: P. aeruginosa ATCC 27853; assay: In vivo antibacterial activity, mice infected ip with lethal amount of P. aeruginosa ATCC 27853; parameters: species or system Balb-c mice; settings: for Animals protected from death: P. aeruginosa ATCC 27853 1×10^7 CFU ip
Description: (§4) FIG. 4. In vivo antibacterial activity of tetra-branched M33 peptide. A, Balb-c mice (20 g) were intra-peritoneally injected with a lethal amount of E. coli TG1 cells (1.5×10^9 CFU). Continuous line (Ctr) indicates mice only injected ip with bacteria and no M33. Broken line indicates mice injected ip with bacteria and a single injection of M33 peptide 10 mg/Kg 30 minutes later. B, Balb-c mice (20 g) were intra-peritoneally injected with a lethal amount of P. aeruginosa cells (ATCC 27853 1×10^7 CFU). Continuous line (Ctr) indicates mice which only received bacteria; other groups received bacteria and a single dose of M33 30 minutes later (see figure for doses of M33). C, Balb-c mice (20 g) were intra-peritoneally injected with a lethal amount of P. aeruginosa cells (multi drug resistant VR 147 clinical isolate, 1.5×10^7 CFU). Continuous line (Ctr) indicates mice which only received bacteria; broken line indicates mice which received bacteria and a single dose of M33 25 mg/Kg. D, Balb-c mice (20 g) were intra-peritoneally injected with a lethal amount of P. aeruginosa cells (ATCC 27853 1×10^7 CFU). Continuous line (Ctr) indicates mice which only received bacteria; long broken line, mice receiving bacteria and two injections of M33 (5 mg/Kg×2), 30 minutes and 12 hours after bacteria; short broken line, mice receiving bacteria and three injections of M33 (5 mg/Kg×3), 30 minutes, 12 and 24 hours after bacteria. P<0.05.
Tetra-branched M33 peptide was analysed for its antibacterial activity in mice infected with lethal amounts of bacteria. Two different bacterial species were used, Escherichia coli and Pseudomonas aeruginosa. […] Balb-c mice were infected with the LD100 of bacteria and treated 30 minutes later with the peptide by ip administration.

[15] = tested on: P. aeruginosa VR-143/97; assay: In vivo antibacterial activity, mice infected ip with lethal amount of MDR P. aeruginosa VR-143/97; parameters: species or system Balb-c mice; settings: MDR P. aeruginosa VR-143/97 1.5×10^7 CFU ip; single dose 25 mg/Kg
Description: as §4, with “Continuous line (Ctr) indicates mice which only received bacteria; long broken line, mice receiving bacteria and two injections of M33 (5 mg/Kg×2), 30 minutes and 12 hours after bacteria; short broken line, mice receiving bacteria and three injections of M33 (5 mg/Kg×3), 30 minutes, 12 and 24 hours after bacteria. P<0.05.” left out
Tetra-branched M33 peptide was analysed for its antibacterial activity in mice infected with lethal amounts of bacteria. […]

[16] = tested on: P. aeruginosa ATCC 27853; assay: Bacterial load of P. aeruginosa in a mouse sepsis model; type: in vivo; settings: P. aeruginosa 1 × 10^7 CFU/mouse ip, M33 25 mg/Kg
Description: After 40 hours, all sampled body sites were apparently clear of bacteria (Table 2).

[17] = sacrificed 18 h after infection
[18] = sacrificed 40 h after infection

CC[C@H](C)[C@H](NC(=O)[C@H](CCCCN)NC(=O)[C@@H](N)CCCCN)C(=O)N[C@@H](CCCNC(=N)N)C(=O)N[C@H](C(=O)N[C@@H](CCCNC(=N)N)C(=O)N[C@@H](CC(C)C)C(=O)N[C@@H](CO)C(=O)N[C@@H](C)C(=O)NCCCC[C@H](NC(=O)[C@H](C)NC(=O)[C@H](CO)NC(=O)[C@H](CC(C)C)NC(=O)[C@H](CCCNC(=N)N)NC(=O)[C@@H](NC(=O)[C@H](CCCNC(=N)N)NC(=O)[C@@H](NC(=O)[C@H](CCCCN)NC(=O)[C@@H](N)CCCCN)[C@@H](C)CC)C(C)C)C(=O)NCCCC[C@H](NC(=O)[C@H](CCCCNC(=O)[C@H](C)NC(=O)[C@H](CO)NC(=O)[C@H](CC(C)C)NC(=O)[C@H](CCCNC(=N)N)NC(=O)[C@@H](NC(=O)[C@H](CCCNC(=N)N)NC(=O)[C@@H](NC(=O)[C@H](CCCCN)NC(=O)[C@@H](N)CCCCN)[C@@H](C)CC)C(C)C)NC(=O)[C@H](C)NC(=O)[C@H](CO)NC(=O)[C@H](CC(C)C)NC(=O)[C@H](CCCNC(=N)N)NC(=O)[C@@H](NC(=O)[C@H](CCCNC(=N)N)NC(=O)[C@@H](NC(=O)[C@H](CCCCN)NC(=O)[C@@H](N)CCCCN)[C@@H](C)CC)C(C)C)C(=O)NCCC(=O)O)C(C)C [M33, KKIRVRLSA] (I: H-KKIRVRLSAKK[βAla]-OH / II: H-KKIRVRLSAK / III: H-KKIRVRLSA / IV: H-KKIRVRLSA; amide I:10-IV:C, I:11-II:C, II:10-III:C; N-terminus assumed)
MIC [1]: 1.5 µM (≈ 7.02 µg/mL)
MIC [2]: >24 µM
MIC [3]: 1.5 µM (≈ 7.02 µg/mL)
MIC [4]: 3 µM (≈ 14 µg/mL)
MIC [5]: 1.5 µM (≈ 7.02 µg/mL)
MIC [6]: 3 µM (≈ 14 µg/mL)
MIC [7]: 0.7 µM (≈ 3.28 µg/mL)
MIC [8]: 3 µM (≈ 14 µg/mL)
MIC [9]: 3 µM (≈ 14 µg/mL)
MIC [10]: 6 µM (≈ 28.1 µg/mL)
Neutralization of sample gelification due to LPS [11]: ability to neutralize sample gelification due to LPS
EC50 ([12]; Raw 264.7 macrophages, LPS from P. aeruginosa serotype 10 ATCC27316, 20 ng/ml, read-out: EC50, block of TNF-α secretion): 40 nM
Decrease of TNF-α production ([12]; at a concentration corresponding to MIC (1.5-3 μM), LPS from P. aeruginosa): more than 90%
EC50 ([13]; Raw 264.7 macrophages, LPS from K. pneumoniae ATCC15380, 5 ng/ml, read-out: EC50, block of TNF-α secretion): 260 nM
Decrease of TNF-α production ([13]; at a concentration corresponding to MIC (1.5-3 μM), LPS from K. pneumoniae): more than 80%
Animals protected from death ([14]; single dose 6.5 mg/Kg ip 30 minutes later): did not protect them from death
Animals protected from death ([14]; single dose 12.5 mg/Kg ip 30 minutes later): 25%
Animals protected from death ([14]; single dose 25 mg/Kg ip 30 minutes later): 75%
Survival beyond seven days after infection ([14]; P. aeruginosa ATCC 27853, three doses of 5 mg/Kg (30 min, 12 h and 24 h after infection)): 100%
Survival after multiple doses ([14]; P. aeruginosa ATCC 27853, two doses of 5 mg/Kg (30 min and 12 h after infection)): death was delayed
Animals protected [15]: 100%
Bacterial count (mean ± SD) in Blood [16, 17]: <1 × 10^2 CFU/ml
Bacterial count (mean ± SD) in Liver [16, 17]: 3 × 10^5 ± 6.7 × 10^5 CFU/organ
Bacterial count (mean ± SD) in Spleen [16, 17]: 2.4 × 10^4 ± 5.3 × 10^4 CFU/organ
Bacterial count (mean ± SD) in Blood [16, 18]: <1 × 10^2 CFU/ml
Bacterial count (mean ± SD) in Liver [16, 18]: <1 × 10^2 CFU/organ
Bacterial count (mean ± SD) in Peritoneum [16, 18]: <1 × 10^2 CFU/ml
Bacterial count (mean ± SD) in Spleen [16, 18]: <1 × 10^2 CFU/organ
